Among the data in PubChem BioAssay (NCI) are TGI and GI50 values, retold here.

“And” between values parts separate entries of the source, which are not always exact repeats. Equal values may be shown once.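 Method: 48-hour compound exposure of cells in 96-well plates, five concentrations, linear interpolation of endpoints. The concentration for 50% growth inhibition is given as GI50. Definition used: TGI = concentration required for complete inhibition of growth.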

Test systems include U251 CNS; NCI/ADR-RES ovarian; MDA-MB-231 breast; 786-0 renal; LOX IMVI melanoma; OVCAR-3 ovarian; HL-60(TB) leukemia; SN12C renal; NCI-H522 lung; SK-MEL-2 melanoma.
What all share (experiment): NCI anticancer screen, dose series, 48 h

As to `CCO/C=C1\SC(=S)N(c2ccc(OCC)cc2)C1=O`, the TGI with U251 CNS, in the assay on NCI/ADR-RES ovarian, with MDA-MB-231 breast, with 786-0 renal, in the assay on LOX IMVI melanoma and in the assay on OVCAR-3 ovarian was more than 100 µM each time. Further, the TGI in the assay on HL-60(TB) leukemia, in the assay on SN12C renal, with NCI-H522 lung and in the assay with SK-MEL-2 melanoma was more than 100 µM throughout.

`Cc1noc(NC(=O)Nc2ccccc2F)c1C#N`: the TGI in the assay with U251 CNS was more than 44.6 µM; in the assay on NCI/ADR-RES ovarian, more than 100 µM; in the assay on MDA-MB-231 breast, more than 33.5 µM; in the assay with 786-0 renal, more than 47.1 µM; with LOX IMVI melanoma, more than 100 µM; with OVCAR-3 ovarian, more than 100 µM. The TGI with HL-60(TB) leukemia is more than 100 µM; with SN12C renal it was more than 48 µM; in the assay on NCI-H522 lung it was more than 34.7 µM; with SK-MEL-2 melanoma, more than 54.9 µM.

As to `COc1cc2nnc3c4cccnc4[nH]c3c2cc1OC`, the GI50 in the assay with U251 CNS was 1.66 µM and 0.918 µM; in the assay with NCI/ADR-RES ovarian, 2.19 µM; in the assay on MDA-MB-231 breast, 3.14 µM and 2.69 µM; with 786-0 renal it was 1.46 µM and 0.319 µM; in the assay with LOX IMVI melanoma, 1.43 µM and 1.41 µM; in the assay on OVCAR-3 ovarian it was 1.37 µM and 1.15 µM. For the same molecule, the GI50 in the assay on HL-60(TB) leukemia was 0.111 µM; with SN12C renal it was 1.9 µM and 2.27 µM; in the assay with NCI-H522 lung it was 1.65 µM and 2.05 µM; in the assay on SK-MEL-2 melanoma, 13.8 µM and 11.3 µM. The TGI in the assay on NCI/ADR-RES ovarian was 50 µM; with MDA-MB-231 breast it was 50 µM and > 100 µM; in the assay on 786-0 renal it was 7.1 µM and 1.63 µM; in the assay on LOX IMVI melanoma, 15.7 µM and 4.69 µM; in the assay with OVCAR-3 ovarian it was 22.6 µM and 5.5 µM; in the assay with HL-60(TB) leukemia, 50 µM. Also, the TGI in the assay with SN12C renal was 19.2 µM and 8.47 µM; with NCI-H522 lung, 16.6 µM and 7.6 µM; with SK-MEL-2 melanoma, 50 µM and 37.9 µM.

Take `C#Cc1ccc(-n2c(/C=C/c3ccc(O)cc3)nc3ncccc3c2=O)cc1`: the GI50 in the assay on U251 CNS is 4.02 µM; with NCI/ADR-RES ovarian, 5.27 µM; with MDA-MB-231 breast it was 11.4 µM; with 786-0 renal, 4.88 µM; in the assay on LOX IMVI melanoma it was 5.35 µM; in the assay with OVCAR-3 ovarian, 2.41 µM. In addition, the GI50 with HL-60(TB) leukemia is 3.2 µM; in the assay on SN12C renal, 5.16 µM; in the assay with NCI-H522 lung, 2 µM; in the assay on SK-MEL-2 melanoma, 3.95 µM. The TGI in the assay on U251 CNS was more than 100 µM; in the assay with NCI/ADR-RES ovarian, more than 100 µM; with MDA-MB-231 breast, more than 100 µM; in the assay on 786-0 renal, 50.4 µM; in the assay with LOX IMVI melanoma it was more than 100 µM; in the assay on OVCAR-3 ovarian, 5.69 µM. The TGI was 30 µM in the assay with HL-60(TB) leukemia, more than 100 µM in the assay with SN12C renal, 6.04 µM in the assay with NCI-H522 lung and 40.7 µM in the assay with SK-MEL-2 melanoma.

Consider `COc1ccccc1CNCCN1C(=O)c2ccc3c4c(ccc(c24)C1=O)C(=O)N(CCNCc1ccccc1OC)C3=O`, for which the GI50 is 0.225 µM in the assay with U251 CNS; 0.283 µM in the assay with NCI/ADR-RES ovarian; 0.277 µM in the assay on MDA-MB-231 breast; 0.187 µM with 786-0 renal; 0.168 µM with LOX IMVI melanoma; 0.207 µM with OVCAR-3 ovarian. The GI50 in the assay with HL-60(TB) leukemia is 0.265 µM; in the assay on SN12C renal, 0.248 µM; in the assay with NCI-H522 lung it was 0.137 µM; in the assay on SK-MEL-2 melanoma, 0.712 µM. For the same molecule, the TGI was 0.505 µM with U251 CNS; 0.831 µM in the assay on NCI/ADR-RES ovarian; 0.817 µM in the assay with MDA-MB-231 breast; 0.37 µM in the assay on 786-0 renal; 0.338 µM with LOX IMVI melanoma; 0.676 µM with OVCAR-3 ovarian. Moreover, the TGI with HL-60(TB) leukemia stood at 0.607 µM; in the assay on SN12C renal, 0.701 µM; with NCI-H522 lung, 0.314 µM; with SK-MEL-2 melanoma, 2.24 µM.

`Cc1cc(Cl)nc(N(CCNc2ccnc3cc(Cl)ccc23)Cc2ccco2)n1`: the GI50 is 1.64 µM in the assay on U251 CNS; 1.74 µM with NCI/ADR-RES ovarian; 1.85 µM in the assay on MDA-MB-231 breast; 1.65 µM in the assay on 786-0 renal; 1.72 µM in the assay on LOX IMVI melanoma; 1.75 µM in the assay on OVCAR-3 ovarian. Also, the GI50 was 1.65 µM with HL-60(TB) leukemia, 1.98 µM in the assay with SN12C renal, 1.76 µM with NCI-H522 lung and 2.18 µM in the assay on SK-MEL-2 melanoma. For the same molecule, the TGI in the assay with U251 CNS is 3.09 µM; with NCI/ADR-RES ovarian, 4 µM; in the assay on MDA-MB-231 breast, 3.76 µM; in the assay with 786-0 renal, 3.1 µM; in the assay on LOX IMVI melanoma, 3.2 µM; with OVCAR-3 ovarian, 3.32 µM. Besides, the TGI was 3.59 µM in the assay with HL-60(TB) leukemia, 3.95 µM with SN12C renal, 3.61 µM with NCI-H522 lung and 4.8 µM in the assay with SK-MEL-2 melanoma.

Take `CC(=O)Oc1ccc(C2=Cc3ccc(OC(C)=O)cc3OC2C)cc1` (centres undefined): the GI50 is 4.91 µM in the assay on U251 CNS; 3.57 µM with NCI/ADR-RES ovarian; 5.06 µM in the assay on MDA-MB-231 breast; 4.1 µM in the assay with 786-0 renal; 4.09 µM in the assay with LOX IMVI melanoma; 3.33 µM in the assay on OVCAR-3 ovarian. In addition, the GI50 in the assay on HL-60(TB) leukemia was 0.645 µM; with SN12C renal it was 7.08 µM; with NCI-H522 lung, 3.58 µM; in the assay on SK-MEL-2 melanoma, 23.4 µM. Moreover, the TGI is 79.9 µM with U251 CNS; 73.1 µM in the assay on NCI/ADR-RES ovarian; 63.7 µM in the assay with MDA-MB-231 breast; 33.8 µM in the assay with 786-0 renal; 26.2 µM in the assay on LOX IMVI melanoma; 15.3 µM with OVCAR-3 ovarian. Moreover, the TGI in the assay on HL-60(TB) leukemia was 4.86 µM; in the assay with SN12C renal it was more than 100 µM; with NCI-H522 lung it was 23.1 µM; in the assay on SK-MEL-2 melanoma, 78.5 µM.

Take `Nc1nccc(-c2c(-c3ccc(F)cc3)nn3cc(C(F)(F)F)ccc23)n1`: the GI50 in the assay with U251 CNS, in the assay with NCI/ADR-RES ovarian, with MDA-MB-231 breast, with 786-0 renal, with LOX IMVI melanoma and in the assay on OVCAR-3 ovarian was more than 25 µM each time. Also, the GI50 with HL-60(TB) leukemia, in the assay on SN12C renal, in the assay with NCI-H522 lung and in the assay on SK-MEL-2 melanoma was more than 25 µM throughout. The TGI with U251 CNS, with NCI/ADR-RES ovarian, in the assay with MDA-MB-231 breast, in the assay on 786-0 renal, in the assay on LOX IMVI melanoma and with OVCAR-3 ovarian was more than 25 µM in each case. In addition, the TGI in the assay on HL-60(TB) leukemia, with SN12C renal, in the assay with NCI-H522 lung and with SK-MEL-2 melanoma was more than 25 µM each time.
